# Data as given in ChEMBL document CHEMBL4017463, “Practical application of 3-substituted-2,6-difluoropyridines in drug discovery: Facile synthesis of novel protein kinase C theta inhibitors” (Bioorg Med Chem Lett, 2017).
# Biological target: Protein kinase C theta type (Homo sapiens, UniProt Q04759)
# Assay: Inhibition of N-terminal FLAG-tagged PKCtheta (unknown origin) expressed in baculovirus expression system using fluorescein-PKC as substrate preincubated for 5 mins followed by substrate addition measured after 60 mins in presence of ATP by Lathascreen TR-FRET assay
# Protein kinase C theta type, sequence (Q04759 whole entry): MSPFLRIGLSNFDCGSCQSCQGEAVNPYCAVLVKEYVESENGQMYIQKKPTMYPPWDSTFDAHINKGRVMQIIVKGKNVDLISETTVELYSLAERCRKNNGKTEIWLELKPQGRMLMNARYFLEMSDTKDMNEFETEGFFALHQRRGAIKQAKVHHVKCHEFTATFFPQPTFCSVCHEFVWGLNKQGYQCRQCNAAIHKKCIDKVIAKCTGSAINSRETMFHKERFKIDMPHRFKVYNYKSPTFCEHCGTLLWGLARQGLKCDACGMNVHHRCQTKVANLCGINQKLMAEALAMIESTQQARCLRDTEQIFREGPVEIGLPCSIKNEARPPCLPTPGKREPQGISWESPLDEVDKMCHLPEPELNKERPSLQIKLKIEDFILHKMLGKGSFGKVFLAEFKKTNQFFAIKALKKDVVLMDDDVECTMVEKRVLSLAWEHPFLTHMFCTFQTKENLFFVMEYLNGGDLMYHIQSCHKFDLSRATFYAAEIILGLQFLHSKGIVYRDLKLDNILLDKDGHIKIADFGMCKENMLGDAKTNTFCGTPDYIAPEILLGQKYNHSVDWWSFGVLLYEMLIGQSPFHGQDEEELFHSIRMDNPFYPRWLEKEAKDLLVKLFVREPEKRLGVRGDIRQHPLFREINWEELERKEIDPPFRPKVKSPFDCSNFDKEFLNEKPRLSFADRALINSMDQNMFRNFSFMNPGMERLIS
row,IC50,SMILES
1,100 nM,O=c1[nH]c2ncccc2n1-c1nc(N2CCCNCC2)ccc1F
2,18 nM,O=c1[nH]c2ncccc2n1-c1nc(N2CCCNCC2)ccc1Cl
3,0.086 nM,CCOc1ccnc2[nH]c(=O)n(-c3nc(N4CCCNCC4)ccc3Cl)c12
4,14 nM,O=c1[nH]c2nccc3c2n1-c1nc(ccc1Cl)OCCCCO3
5,6.7 nM,CN1CCCOc2ccnc3[nH]c(=O)n(c23)-c2nc1ccc2Cl
6,33 nM,COc1ccnc2[nH]c(=O)n(-c3nc(N4CCNC(c5ccccc5)C4)ccc3Cl)c12 (racemic)
7,0.87 nM,CN1CCCCOc2ccnc3[nH]c(=O)n(c23)-c2nc1ccc2Cl
8,6.3 nM,N#Cc1ccc(N2CCNCC2c2ccccc2)nc1-n1c(=O)[nH]c2ncccc21 (racemic)
9,250 nM,CC(C)CC1CCCN1c1ccc(F)c(-n2c(=O)[nH]c3ncccc32)n1 (racemic)
10,> 1000 nM,O=c1[nH]c2ncccc2n1-c1nc(N2CCCC(C(O)C3CC3)C2)ccc1F (stereo unspecified)
11,0.18 nM,CC(C)(C)OC(=O)N1CCN(c2ccc([N+](=O)[O-])c(-n3c(=O)[nH]c4ncccc43)n2)C(c2ccccc2)C1 (racemic)
